Results taken from the supplement of paper PMC10307832.

What was measured:
Experiment in all cases: relative viability (nuclei count vs DMSO), 5 days (fraction); higher = more cells survive
BX 795 + Trametinib = compound: O=C(NCCCNc1nc(Nc2cccc(NC(=O)N3CCCC3)c2)ncc1I)c1cccs1 [BX 795] + CC(=O)Nc1cccc(-n2c(=O)n(C3CC3)c(=O)c3c(Nc4ccc(I)cc4F)n(C)c(=O)c(C)c32)c1 [Trametinib] (partner 0.02 µM)
Method in brief: (§1)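 Relative viability is defined as nuclei in treated wells over nuclei in vehicle wells. Duplicate plates were run and medians reported. Lung cancer cell lines in 1536-well plates were dosed by pin tool one day after seeding, with one drug or with a fixed anchor-drug dose plus five library-drug doses (not always all listed) in √10 steps, and nuclei were counted after 5 days.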

BX 795 + Palbociclib = compound: O=C(NCCCNc1nc(Nc2cccc(NC(=O)N3CCCC3)c2)ncc1I)c1cccs1 [BX 795] + CC(=O)c1c(C)c2cnc(Nc3ccc(N4CCNCC4)cn3)nc2n(C2CCCC2)c1=O [Palbociclib] (partner 0.5 µM)
Method in brief: as §1

BX 795 + Foretinib = compound: O=C(NCCCNc1nc(Nc2cccc(NC(=O)N3CCCC3)c2)ncc1I)c1cccs1 [BX 795] + COc1cc2c(Oc3ccc(NC(=O)C4(C(=O)Nc5ccc(F)cc5)CC4)cc3F)ccnc2cc1OCCCN1CCOCC1 [Foretinib] (partner 0.25 µM)
Method in brief: as §1

BX 795 + Pictilisib = compound: O=C(NCCCNc1nc(Nc2cccc(NC(=O)N3CCCC3)c2)ncc1I)c1cccs1 [BX 795] + CS(=O)(=O)N1CCN(Cc2cc3nc(-c4cccc5[nH]ncc45)nc(N4CCOCC4)c3s2)CC1 [Pictilisib] (partner 1 µM)
Method in brief: as §1

BX 795 + Crizotinib = compound: O=C(NCCCNc1nc(Nc2cccc(NC(=O)N3CCCC3)c2)ncc1I)c1cccs1 [BX 795] + C[C@@H](Oc1cc(-c2cnn(C3CCNCC3)c2)cnc1N)c1c(Cl)ccc(F)c1Cl [Crizotinib] (partner 1 µM)
Method in brief: as §1

Cell Line	relative viability (BX 795 + Trametinib; first compound 0.04 µM)	relative viability (BX 795 + Trametinib; first compound 0.1265 µM)	relative viability (BX 795 + Trametinib; first compound 0.4 µM)	relative viability (BX 795 + Trametinib; first compound 1.265 µM)	relative viability (BX 795 + Palbociclib; first compound 0.04 µM)	relative viability (BX 795 + Palbociclib; first compound 0.1265 µM)	relative viability (BX 795 + Palbociclib; first compound 0.4 µM)	relative viability (BX 795 + Palbociclib; first compound 1.265 µM)	relative viability (BX 795 + Foretinib; first compound 0.04 µM)	relative viability (BX 795 + Foretinib; first compound 0.1265 µM)	relative viability (BX 795 + Foretinib; first compound 0.4 µM)	relative viability (BX 795 + Foretinib; first compound 1.265 µM)	relative viability (BX 795 + Pictilisib; first compound 0.04 µM)	relative viability (BX 795 + Pictilisib; first compound 0.1265 µM)	relative viability (BX 795 + Pictilisib; first compound 0.4 µM)	relative viability (BX 795 + Pictilisib; first compound 1.265 µM)	relative viability (BX 795 + Crizotinib; first compound 0.04 µM)	relative viability (BX 795 + Crizotinib; first compound 0.1265 µM)	relative viability (BX 795 + Crizotinib; first compound 0.4 µM)	relative viability (BX 795 + Crizotinib; first compound 1.265 µM)
NCI-H650	1.05	0.999	0.986	0.928	0.346	0.343	0.319	0.312	1.06	0.935	0.927	0.911	0.86	0.979	0.762	0.623	0.712	0.771	0.421	0.619
NCI-H441	0.545	0.4	0.596	0.335	0.22	0.204	0.243	0.184	1.28	0.908	1.18	0.796	0.609	0.503	0.666	0.37	0.874	0.695	0.878	0.508
HCC-827	0.54	0.539	0.575	0.551	0.551	0.501	0.478	0.484	1.18	1.12	1.09	1.04	1.13	1.02	1.12	0.961	0.935	0.923	0.892	0.712
NCI-H2023	0.797	0.468	0.456	0.233	0.4	0.366	0.358	0.17	0.722	0.912	0.427	0.551	0.152	0.239	0.188	0.197	0.592	0.626	0.269	0.282
NCI-H1975	0.383	0.358	0.316	0.316	0.758	0.712	0.509	0.526	0.833	1.11	0.972	0.898	0.3	0.328	0.26	0.224	0.99	1.04	0.879	0.643
SK-LU-1	0.473	0.674	0.396	0.469	0.384	0.348	0.328	0.392	0.762	0.902		0.569	0.543	0.691	0.416	0.511	0.96	0.92	0.459	0.498
NCI-H2347	0.282	0.239	0.29	0.275	0.496	0.417	0.523	0.496	1.03	0.915	0.8	0.773	0.818	0.492	0.851	0.722	0.8	0.616	0.801	0.545
SK-MES-1	0.574	0.46	0.519	0.396	0.303	0.302	0.271	0.286	0.917	0.971	0.823	0.674	0.372	0.32	0.322	0.382	1.13	0.939	0.836	0.78
NCI-H661	0.62	0.583	0.55	0.564	0.463	0.429	0.429	0.444	1.09	1.04	1.03	0.908	0.461	0.484	0.39	0.441	1.06	1.02	1.12	0.865
NCI-H2170	0.948	0.945	0.93	0.951	0.364	0.395	0.394	0.381	0.979	1.02	1.05	0.998	0.3	0.283	0.283	0.249	1.17	1.27	1.07	1.13
LU99A	0.558	0.484	0.41	0.278	0.434	0.406	0.36	0.277	0.808	0.901	0.793	0.602	0.384	0.317	0.329	0.252	0.646	0.593	0.455	0.361
HCC-15	0.389	0.381	0.505	0.355	0.766	0.712	0.663	0.616	0.973	1.04	0.925	0.915	0.71	0.779	0.968	0.744	0.784	0.883	0.743	0.461
H3255	0.616	0.666	0.655	0.565	0.323	0.276	0.314	0.316	0.965	0.764	1.02	0.848	0.533	0.475	0.498	0.428	0.903	0.831	0.852	0.644
NCI-H2009	0.264	0.227	0.274	0.179	0.24	0.233	0.185	0.167	1.21	1.19	1.16	1.11	0.777	0.744	0.823	0.626	1.02	0.972	0.874	0.645
NCI-H322M	0.5	0.487	0.6	0.562	0.486	0.468	0.571	0.587	0.949	1.17	0.967	1.33	0.627	0.521	0.537	0.527	0.906	0.959	0.711	0.912
NCI-H2405	0.557	0.556	0.44	0.534	0.535	0.537	0.384	0.566	1.08	1.06	1.02	0.935	0.373	0.364	0.295	0.319	0.806	0.842	0.635	0.794
NCI-H1666	0.856	0.884	0.974	0.802	0.536	0.641	0.7	0.657	1.07	1.05	1.11	0.787	0.364	0.516	0.449	0.273	1.16	1.05	1.13	0.769

Cell Line	relative viability (BX 795 + Trametinib; first compound 0.04 µM)	relative viability (BX 795 + Trametinib; first compound 0.1265 µM)	relative viability (BX 795 + Trametinib; first compound 0.4 µM)	relative viability (BX 795 + Trametinib; first compound 1.265 µM)	relative viability (BX 795 + Palbociclib; first compound 0.04 µM)	relative viability (BX 795 + Palbociclib; first compound 0.1265 µM)	relative viability (BX 795 + Palbociclib; first compound 0.4 µM)	relative viability (BX 795 + Palbociclib; first compound 1.265 µM)	relative viability (BX 795 + Foretinib; first compound 0.04 µM)	relative viability (BX 795 + Foretinib; first compound 0.1265 µM)	relative viability (BX 795 + Foretinib; first compound 0.4 µM)	relative viability (BX 795 + Foretinib; first compound 1.265 µM)	relative viability (BX 795 + Pictilisib; first compound 0.04 µM)	relative viability (BX 795 + Pictilisib; first compound 0.1265 µM)	relative viability (BX 795 + Pictilisib; first compound 0.4 µM)	relative viability (BX 795 + Pictilisib; first compound 1.265 µM)	relative viability (BX 795 + Crizotinib; first compound 0.04 µM)	relative viability (BX 795 + Crizotinib; first compound 0.1265 µM)	relative viability (BX 795 + Crizotinib; first compound 0.4 µM)	relative viability (BX 795 + Crizotinib; first compound 1.265 µM)
NCI-H727	0.377	0.38	0.36	0.4	0.634	0.61	0.67	0.696	0.957	0.846	0.916	1.09	0.498	0.643	0.31	0.315	0.868	0.986	0.634	0.492
RERF-LC-KJ		0.962	0.878	0.788		1.08	1.1	0.895	0.907	0.851	0.889	0.888	0.488	0.574	0.536	0.446	0.86	0.767	0.699	0.669
ABC-1					0.768		0.765	0.727	1.03	1.05	0.929	0.601	0.507	0.555	0.634	0.661	1.2	1.23	1.03	0.3
PC-3 [JPC-3]	0.723		0.631	0.729	0.539		0.57	0.543	1.03	1.03	1.03	0.949	0.753	0.707	0.685	0.827	1.04	0.993	1.06	0.946
PC-14	0.754	0.751	0.815	0.325	0.516	0.498	0.485	0.318	0.861	1.01	0.992	0.704	0.654	0.758	0.564	0.439	0.879	0.919	0.851	0.602
COR-L 105	0.47	0.403	0.389	0.421	0.453	0.338	0.401	0.314	1.29	0.962	0.861	0.662	0.376	0.381	0.359	0.328	0.789	0.588	0.56	0.279
SW 1573	0.725	0.642	0.753	0.232	0.537	0.428	0.468	0.172	0.916	0.844	0.971	0.777	0.551	0.463	0.608	0.381	0.832	0.887	0.584	0.667
NCI-H1793	0.404	0.403	0.526	0.344	0.386	0.246	0.384	0.296	0.887	0.663	0.834	0.266	0.399	0.333	0.333	0.257				
NCI-H1651	0.847	0.87	0.879	0.824	0.566	0.534	0.538	0.541	0.786	0.748	0.76	0.674	0.569	0.617	0.615	0.645	0.945	0.948	0.852	0.853
UMC-11	0.685	0.665	0.547	0.531	0.301	0.355	0.306	0.333	0.85	1.06	0.805	0.168	0.726	0.86	0.683	0.534	0.608	0.584	0.322	0.0915
NCI-H1395	1.05	1.06	0.52	0.925	0.627	0.612	0.426	0.498	0.979	1.02	0.943	0.899	0.673	0.562	0.461	0.533				
IA-LM									1.15	1.19	1.28	0.628	0.367	0.311	0.531	0.332	0.78	0.936	1.32	0.546
NCI-H1792	0.425		0.525	0.509	0.724	0.633	0.643	0.613					0.286	0.269	0.24	0.191	1.01	1.08	1.09	0.892
HCC-44	1.14	1.08	1.23	1.12	0.997	0.968	1.05	1.07					0.55	0.672	0.681	0.594	0.811	0.876	0.973	0.581
A549									0.911	1.02	1.03	0.647	0.51	0.47	0.449	0.134	0.725	0.71	0.777	0.128
SW 900	0.819		0.99	0.706	0.512		0.67	0.593	0.938	1.04	0.968	0.569								
NCI-H596	0.807	0.757	0.932	0.776					0.873	0.745	1.07	0.787	0.449	0.38	0.417	0.431	1.08	1.02	1.03	0.874
